# Measurements taken from US20240287093A1, “HIGH ACTIVITY STING PROTEIN AGONIST” (ADLAI NORTYE BIOPHARMA CO., LTD., priority 2018, published 2024).
# Key:
# Format in all cases: cell-based
# STING variants (WT) [1] = molecular target: T1, STING variants (WT) (Homo sapiens, UniProt Q86WV6); assay: SEAP reporter assay in HEK-Blue ISG KO-STING cells transfected with STING WT variant (Method 2, 1 ng vector); conditions: compound concentration 2.5 (mM as printed); 24 h; SEAP signal ratio to 0.5% DMSO
# T1 construct: host or cells: HEK-Blue ISG KO-STING cells (Invivogen, hkb-kostg)
# Source text: (§1) Example II: STING Variants (WT & HAQ) Activation by Compounds in HEK-Blue™ ISG KO-STING Cells (Method 2)
# (§2) Activation of STING can be determined using a SEAP reporter assay in HEK-Blue™ ISG KO-STING cells (Invivogen, cat #hkb-kostg) transfected with plasmids expressing STING variants (WT & HAQ) (referred to WO2017/175147A1). STING variants (WT & HAQ) vector were constructed based on STING-232H vector (Origene, RC208418). GFP vector (VT2069) was bought from Youbio. The detailed protocol as follows: HEK-Blue™ ISG KO-STING cells were harvest and seeding into 96 well plate and the final cell number was 0.8×10^5 cells/well. Transfections were prepared using Lipofectamine 2000 (Invitrogen, Cat #11668-027) following the manufacturer's instructions (Lipo2000:DNA=1:10), 20 ul of transfection suspension containing 1 ng (WT variant) or 0.0625 ng (HAQ variant) STING vector was added to cell culture plate and incubated at 37° C., 5% CO2 for 24 h. After 24 hours incubation, compounds were added at proper concentration, the final DMSO concentration was 0.5%. After 24h incubation, the supernatant was collected to detect SEAP signal using Great EscAPe SEAP chemiluminescence KIT (Clontech, cat #631738) and cells were collected to detect cell viability using CellTiter-Glo Luminescent Cell Viability Assay(Promega, cat #G7573) following the manufacturer's instructions. The data were described by the ratio of the stimulating signal of compounds to 0.5% DMSO.
# STING = molecular target: T2, STING (Homo sapiens, UniProt Q86WV6, G230A/H232R/R293Q/R71H); assay: IFNβ release from THP1 by STING activation (hIFNβ ELISA); conditions: THP1 cells, 24 h, IFN-β in supernatant; inactive = IFNβ not detected at the maximum concentration of compounds
# T2 construct: THP1 was purchased from National Collection of Authenticated Cell Cultures (Cat #TCHu 57); host or cells: THP1
# Procedure: Example III: Compound Stimulate THP1 to Release IFNβ by STING Activation
# In this assay, activation of STING by compounds was evaluated by detecting their ability to stimulate the secretion of IFN-β (interferon-beta) from THP1. THP1 was purchased from National Collection of Authenticated Cell Cultures (Cat #TCHu 57). The top dose of compounds was setted according to their solubility. First, Compounds were 3 times diluted with medium, 8-dose points in total. The final DMSO concentration was 0.2%. THP1 during the logarithmic phase was resuspended to 2×10^6 cells/ml in assay medium. The THP1-cell suspension was dispensed into a 96-well U bottom plate containing 50 ul of compound diluted in medium. After 24 h incubation at 37° C., 5% CO2, the supernatant was collected. The concentration of IFN-β in the supernatant was measured using a human IFNβ ELISA KIT (R&D, DY814-05). The data was fitted with GraphPad Prism or XLfit to calculate EC50 values.
# STING variants (HAQ) [2] = molecular target: T3, STING variants (HAQ) (Homo sapiens, UniProt Q86WV6, G230A/R293Q/R71H); assay: SEAP reporter assay in HEK-Blue ISG KO-STING cells transfected with STING HAQ variant (Method 2, 0.0625 ng vector); conditions: compound concentration 5 (mM as printed); 24 h; SEAP signal ratio to 0.5% DMSO
# T3 construct: host or cells: HEK-Blue ISG KO-STING cells (Invivogen, hkb-kostg)
# Source text: as §1, §2
# STING variants (WT) [3] = molecular target: T1, STING variants (WT); assay: SEAP reporter assay in HEK-Blue ISG KO-STING cells transfected with STING WT variant (Method 1); conditions: 24 h
# Source text: (§3) Example I: STING Variants (WT & HAQ) Activation by Compounds in HEK-Blue™ ISG KO-STING Cells (Method 1)
# as §2, with “well plate,” for “well plate and”, “ng” for “ng (WT variant) or 0.0625 ng (HAQ variant)”, “concentration, and” for “concentration,”, “After 24 h” for “After 24h”, “Viability Assay (Promega,” for “Viability Assay(Promega,”
# STING variants (HAQ) [4] = molecular target: T3, STING variants (HAQ); assay: SEAP reporter assay in HEK-Blue ISG KO-STING cells transfected with STING HAQ variant (Method 1); conditions: 24 h
# Source text: as §3
# as §2, with “well plate,” for “well plate and”, “ng” for “ng (WT variant) or 0.0625 ng (HAQ variant)”, “concentration, and” for “concentration,”, “After 24 h” for “After 24h”, “Viability Assay (Promega,” for “Viability Assay(Promega,”
# [5] = compound concentration 206.6 μM
# [6] = compound concentration 115.2 μM
# T2 sequence (Q86WV6 whole entry R71H/G230A/H232R/R293Q): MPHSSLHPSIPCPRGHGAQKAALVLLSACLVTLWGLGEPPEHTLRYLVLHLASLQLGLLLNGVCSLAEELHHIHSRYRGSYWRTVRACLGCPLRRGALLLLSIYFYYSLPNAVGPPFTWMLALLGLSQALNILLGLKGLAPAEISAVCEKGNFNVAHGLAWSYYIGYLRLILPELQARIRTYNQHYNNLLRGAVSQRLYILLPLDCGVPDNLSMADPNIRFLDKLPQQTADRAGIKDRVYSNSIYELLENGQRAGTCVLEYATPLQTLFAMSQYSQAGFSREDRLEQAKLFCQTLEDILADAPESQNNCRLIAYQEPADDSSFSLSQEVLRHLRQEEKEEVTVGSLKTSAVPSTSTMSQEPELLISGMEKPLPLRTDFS
# T3 sequence (Q86WV6 whole entry R71H/G230A/R293Q): as the sequence (Q86WV6 whole entry R71H/G230A/H232R/R293Q) above, with R232H counted along it
SMILES,"Fold change related to DMSO control, WT (STING variants (WT) [1]) [fold]",EC50 (STING) [µM],"Fold change related to DMSO control, HAQ (STING variants (HAQ) [2]) [fold]","hIFNβ ELISA (EC50, μM) (STING)",also measured
"CCn1nc(C)c(F)c1C(=O)Nc1nc2cc(C(N)=O)cc3c2n1CC1(COC1)CO3 [Example 72, 1-(1-Ethyl-4-fluoro-3-methyl-1H-pyrazole-5-carboxamido)-7H,9H-6-oxa-2,9a-diazaspiro[benzo[cd]azulene-8,3′-oxetan]-1,2a,2a^1(5a),4-tetraene-4-carboxamide]",1.24,> 38.5,3.27,,
"CCn1nc(C)cc1C(=O)Nc1nc2cc(C(N)=O)cc3c2n1CCCO3 [Example 57, 1-(1-Ethyl-3-methyl-1H-pyrazole-5-carboxamido)-8,9-dihydro-7H-6-oxa-2,9a-diazabenzo[cd]azulene-4-carboxamide]",1.34,,3.59,inactive,
"CCn1nc(C)c(F)c1C(=O)Nc1nc2cc(C(N)=O)cc3c2n1CC1(CC1)CO3 [Example 64, 1-(1-ethyl-4-fluoro-3-methyl-1H-pyrazole-5-carboxamido)-7,9-dihydrospiro[6-oxa-2,9a-diazabenzo[cd]azulene-8,1′-cyclopropane]-4-carboxamide]",1.53,> 12.8,5.84,,
"CCn1nc(C)cc1C(=O)Nc1nc2cc(C(N)=O)cc3c2n1C[C@@H](C)CO3 [Example 70, (R)-1-(1-Ethyl-3-methyl-1H-pyrazole-5-carboxamido)-8-methyl-8,9-dihydro-7H-6-oxa-2,9a-diazabenzo[cd]azulene-4-carboxamide]",2.37,> 50,10.57,,
"CCn1nc(C)c(F)c1C(=O)Nc1nc2cc(C(N)=O)cc3c2n1CCCN3C [Example 66, 1-(1-Ethyl-4-fluoro-3-methyl-1H-pyrazole-5-carboxamido)-6-methyl-6,7,8,9-tetrahydro-2,6,9a-triazabenzo[cd]azulene-4-carboxamide]",7.15,2.8,71.56,,
"CCn1nc(C)cc1C(=O)Nc1nc2cc(C(N)=O)cc3c2n1CC(C)(C)CN3C [Example 68, 1-(1-Ethyl-3-methyl-1H-pyrazole-5-carboxamido)-6,8,8-trimethyl-6,7,8,9-tetrahydro-2,6,9a-triazabenzo[cd]azulene-4-carboxamide]",9.81,4.7,67.23,,
"CCn1nc(C)cc1C(=O)Nc1nc2cc(C(N)=O)cc3c2n1CC(C)(C)CN3 [Example 67, 1-(1-Ethyl-3-methyl-1H-pyrazole-5-carboxamido)-8,8-dimethyl-6,7,8,9-tetrahydro-2,6,9a-tri azabenzo[cd]azulene-4-carboxamide]",7.90,14.9,49.72,,
"CCn1nc(C)cc1C(=O)Nc1nc2cc(C(N)=O)cc3c2n1[C@@H](CCCNC(=O)COc1ccccc1)CO3 [Example 33, (S)-2-(1-ethyl-3-methyl-1H-pyrazole-5-carboxamido)-3-(3-(2-phenoxyacetamido)propyl)-3,4-dihydro-5-oxa-1,2a-diazaacenaphthylene-7-carboxamide]",,,,inactive,"Fold change related to DMSO control, WT (STING variants (WT) [3]; compound concentration 25 μM): 2.49 fold; Fold change related to DMSO control, HAQ (STING variants (HAQ) [4]; compound concentration 25 μM): 20.81 fold"
"CCC[C@H]1COc2cc(C(N)=O)cc3nc(NC(=O)c4cc(C)nn4CC)n1c23 [Example 23, (S)-2-(1-Ethyl-3-methyl-1H-pyrazole-5-carboxamido)-3-propyl-3,4-dihydro-5-oxa-1,2a-diazacenaphthylene-7-carboxamide]",,,,inactive,"Fold change related to DMSO control, WT (STING variants (WT) [3]; compound concentration 25 μM): 2.62 fold; Fold change related to DMSO control, HAQ (STING variants (HAQ) [4]; compound concentration 25 μM): 81.27 fold"
"CCn1nc(C)cc1C(=O)Nc1nc2cc(C(N)=O)cc3c2n1[C@@H](CCNC(=O)OCc1ccccn1)CO3 [Example 9, Pyridin-2-ylmethyl (S)-(2-(7-carbamoyl-2-(1-ethyl-3-methyl-1H-pyrazole-5-carboxamido)-3,4-dihydro-5-oxa-1,2a-diazaacenaphthylen-3-yl)ethyl)carbamate]",,,,inactive,"Fold change related to DMSO control, WT (STING variants (WT) [3]; [5]): 2.86 fold; Fold change related to DMSO control, HAQ (STING variants (HAQ) [4]; [5]): 21.28 fold"
CCn1nc(C)cc1C(=O)Nc1nc2cc(C(N)=O)cc3c2n1[C@@H](C)CO3 [Example 12],,> 8.9,,,"Fold change related to DMSO control, WT (STING variants (WT) [3]; compound concentration 52.6 μM): 3.31 fold; Fold change related to DMSO control, HAQ (STING variants (HAQ) [4]; compound concentration 52.6 μM): 27.37 fold"
"CCn1nc(C)cc1C(=O)Nc1nc2cc(C(N)=O)cc3c2n1C[C@@H](C)O3 [Example 16, (R)-2-(1-Ethyl-3-methyl-1H-pyrazole-5-carboxamido)-4-methyl-3,4-dihydro-5-oxa-1,2a-diazaacenaphthylene-7-carboxamide]",,,,inactive,"Fold change related to DMSO control, WT (STING variants (WT) [3]; compound concentration 42.8 μM): 3.00 fold; Fold change related to DMSO control, HAQ (STING variants (HAQ) [4]; compound concentration 42.8 μM): 15.06 fold"
"CCn1nc(C)cc1C(=O)Nc1nc2cc(C(N)=O)cc3c2n1[C@@H](CCCNC(=O)OCc1ccccc1)CN3C [Example 43, Benzyl (S)-(3-(8-carbamoyl-2-(1-ethyl-3-methyl-1H-pyrazole-5-carbozamido)-6-methyl-5,6-dihydro-4H-imidazo[1,5,4-de]quinoxalin-4-yl)propyl)carbamate]",,,,inactive,"Fold change related to DMSO control, WT (STING variants (WT) [3]; compound concentration 2.5 μM): 2.02 fold; Fold change related to DMSO control, HAQ (STING variants (HAQ) [4]; compound concentration 5 μM): 23.88 fold"
"CCn1nc(C)cc1C(=O)Nc1nc2cc(C(N)=O)cc3c2n1[C@@H](CCNC(=O)COc1ccccc1)CO3 [Example 7, (S)-2-(1-Ethyl-3-methyl-1H-pyrazole-5-carboxamido)-3-(2-(2-phenoxyacetamido)ethyl)-3,4-dihydro-5-oxa-1,2a-diazaacenaphthylene-7-carboxamide]",,,,inactive,"Fold change related to DMSO control, WT (STING variants (WT) [3]; [6]): 2.70 fold; Fold change related to DMSO control, HAQ (STING variants (HAQ) [4]; [6]): 13.64 fold"
